# From article PMC6271860, “Bioactive 30-Noroleanane Triterpenes from the Pericarps of Akebia trifoliata” (Molecules, 2014)
# Where a name gives a salt, the structure may show the parent alone.
# Legend:
# [1] = tested on: B. cereus (CMCC63302); experiment: Antibacterial microdilution titre assay (resazurin), MIC; conditions: Gram-positive, 37 °C, 5–6 h
# [2] = tested on: S. aureus (CMCC26003); experiment: as above; conditions: Gram-positive, 37 °C, 5–6 h
# [3] = tested on: B. subtilis (CMCC63501); experiment: as above; conditions: Gram-positive, 37 °C, 5–6 h
# [4] = tested on: MRSA; experiment: as above; conditions: for MIC: MRSA, Gram-positive, 37 °C, 5–6 h
# [5] = tested on: S. dysenteriae (CMCC51252); experiment: as above; assay type: cell-based; conditions: Shigella dysenteriae
# [6] = tested on: E. coli (CMCC44102); experiment: as above; conditions: Escherichia coli
# [7] = tested on: S. typhimurium (CMCC44102); experiment: as above; conditions: Salmonella enterica
# [8] = Cytotoxicity, MTT method; conditions: human
# Procedure: (§1) These compounds were also tested for their in vitro cytotoxicity against three human tumor cell lines, A549 (human lung adenocarcinoma), HeLa (human cervical carcinoma) and HepG2 (human liver hepatocellular carcinoma), using the MTT method as described.
# (§2) The three tumor cell lines were generously provided by Kunming Institute of Zoology, Chinese Academy of Sciences. The cytotoxic activities of the tested compounds were assayed according to the MTT method by using 96 well plates. Briefly, the cells were cultured in RPMI-1640 medium, supplemented with 10% fetal bovine serum in a humidified atmosphere with 5% CO2 at 37 °C. One hundred μL of adherent cells at the density of 5 × 10^4 cell/mL was seeded into each well of 96-well cell culture plates and incubated in 5% CO2 at 37 °C for 24 h to form a monolayer on the flat bottoms. Then, removed the supernatant per well and subsequently added with 100 μL of fresh medium and 100 μL of medium containing a test compound. The plate was then incubated in 5% CO2at 37 °C. After 72 h, 20 μL of 5 mg/mL MTT in DMSO was added into each well and incubated for 4 h. The supernatant per well was carefully removed and 150 μL of DMSO was added. The plate was then vortex shaken for 15 min to dissolve blue formazan crystals. The optical density (OD) of each well was measured on a Genois microplate reader (Tecan GENios, Männedorf, Switzerland) at the wavelength of 570 nm. All experiments were performed in triplicate and adriamycin was used as a positive control. In each experiment, each of the tumor cell lines was exposed to the test compound at concentrations of 50, 25, 12.5, 6.25, 3.125, 1.5625 µg/mL. The inhibitory rate of cell growth was calculated according to the following formula: Inhibition rate (%) = (ODcontrol− ODtreated)/ODcontrol× 100%. IC50 values were calculated by SPSS 16.0 statistic software. The values were based on three individual experiments and expressed as means ± standard deviation (SD).
# [9] = tested on: A549 (human lung adenocarcinoma); experiment: Cytotoxicity, MTT method; conditions: read-out: Cytotoxicity IC50, A549 cells, 72 h, mean ± SD (n = 3)
# Procedure: as §1, §2
# [10] = tested on: HeLa (human cervical carcinoma); experiment: Cytotoxicity, MTT method; conditions: read-out: Cytotoxicity IC50, HeLa cells, 72 h, mean ± SD (n = 3)
# Procedure: as §1, §2
# [11] = Bacillus cereus, CMCC63302, B. cereus (CMCC63302)
# [12] = Staphylococcus aureus, CMCC26003, S. aureus (CMCC26003)
# [13] = Bacillus subtilis, CMCC63501, B. subtilis (CMCC63501)
# [14] = Cytotoxicity IC50, A549 cells, mean ± SD (n = 3)
# [15] = Cytotoxicity IC50, HeLa cells, mean ± SD (n = 3)
Structure (SMILES),"MIC [1, 11] [µg/mL]","MIC [2, 12] [µg/mL]","MIC [3, 13] [µg/mL]",MIC ([4]; Staphylococcus aureus) [µg/mL],MIC [5] [µg/mL],MIC [6] [µg/mL],MIC [7] [µg/mL],IC50 at 72 h [8] [µM],"IC50 at 72 h [8, 14] [µM]","IC50 at 72 h [8, 15] [µM]",MIC ([1]; B. cereus (CMCC63302)) [µg/mL],MIC ([2]; S. aureus (CMCC26003)) [µg/mL],MIC ([3]; B. subtilis (CMCC63501)) [µg/mL],"MIC toward MRSA, fold stronger than the reference compound kanamycin ([4]; MIC compared with kanamycin)",MIC [4] [µg/mL],IC50 [9] [µM],IC50 [10] [µM]
"CC1=C(C(=O)O)N2C(=O)[C@@H](NC(=O)[C@H](N)C3=CCC=CC3)[C@H]2SC1 [C, cefradine, reference compound]",200,50,200,> 200,12.5,12.5,12.5,–,–,–,–,–,–,–,–,–,–
"CC1(O)CCC2(C(=O)O)CCC3(C)C(=CCC4C5(C)CC(O)C(O)C(C)(C)C5CCC43C)C2C1 (stereo not drawn) [Compound 1, 2α,3β,20α-trihydroxy-30-norolean-12-en-28-oic acid]",> 200,> 200,> 200,> 200,> 200,> 200,> 200,> 100,> 100,> 100,–,–,–,–,–,–,–
"C=C1CCC2(C(=O)O)CCC3(C)C(=CCC4C5(C)CC(O)C(O)C(C)(C=O)C5CCC43C)C2C1 (stereo not drawn) [Compound 2, 2α,3β-dihydroxy-23-oxo-30-norolean-12,20(29)-dien-28-oic acid]",> 200,> 200,> 200,> 200,> 200,> 200,> 200,> 100,> 100,> 100,–,–,–,–,–,–,–
"C=C1CC[C@]2(C(=O)O)CC[C@]3(C)C(=CCC4[C@@]5(C)CC[C@H](O)C(C)(C)C5CC[C@]43C)C2C1 (stereo partly drawn) [Compound 3, 3β-akebonoic acid]",12.5 to 25,12.5 to 25,12.5 to 25,12.5 to 25,> 200,> 200,> 200,52.9 ± 5.28,49.5 ± 8.64,28.6 ± 7.41,25,25,12.5,about five-fold,25,–,–
"C=C1CC[C@]2(C(=O)O)CC[C@]3(C)C(=CCC4[C@@]5(C)C[C@@H](O)[C@H](O)C(C)(C)C5CC[C@]43C)C2C1 (stereo partly drawn) [Compound 4, 2α,3β-dihydroxy-30-noroleana-12,20(29)-dien-28-oic acid]",50,200,25,200,> 200,> 200,> 200,14.3 ± 0.49,8.8,16.33 ± 0.12,–,–,–,–,–,8.77 ± 0.59,–
"C=C1CC[C@]2(C(=O)O)CC[C@]3(C)C(=CCC4[C@@]5(C)CC[C@@H](O)C(C)(C)C5CC[C@]43C)C2C1 (stereo partly drawn) [Compound 5, 3α-akebonoic acid]",25,> 200,50,> 200,> 200,> 200,> 200,10.4 ± 1.17,10.6 ± 0.69,5.6,–,–,–,–,–,–,5.61
"C=C1CC[C@]2(C(=O)O)CC[C@]3(C)C(=CCC4[C@@]5(C)CC[C@@H](O)[C@](C)(CO)C5CC[C@]43C)C2C1 (stereo partly drawn) [Compound 6, quinatic acid]",50,> 200,12.5,> 200,> 200,> 200,> 200,> 100,> 100,> 100,–,–,–,–,–,–,–
"NC[C@H]1O[C@H](O[C@H]2[C@H](O)[C@@H](O[C@H]3O[C@H](CO)[C@@H](O)[C@H](N)[C@H]3O)[C@H](N)C[C@@H]2N)[C@H](O)[C@@H](O)[C@@H]1O [K, kanamycin sulfate, reference compound]",3.9,1.9,3.9,125,3.9,3.9,3.9,–,–,–,–,–,–,–,–,–,–
